Assay results from ChEMBL document CHEMBL1145498, “A systematic interaction map of validated kinase inhibitors with Ser/Thr kinases” (Proc Natl Acad Sci U S A, 2007).

These compounds were tested against 5'-AMP-activated protein kinase catalytic subunit alpha-2 (Homo sapiens) (UniProt P54646).

ΔTm | SMILES
1 °C | Nc1ncnc2c1c(I)cn2[C@@H]1O[C@H](CO)[C@@H](O)[C@H]1O
0.1 °C | O=C(O)Cc1ccc(O)c([N+](=O)[O-])c1
-0.9 °C | O=c1sn(Cc2ccccc2)c(=S)n1Cc1ccccc1
4.5 °C | O=Nc1c(-c2c(O)[nH]c3ccccc23)[nH]c2ccccc12
1.6 °C | O=c1c(-c2ccc(O)cc2)coc2cc(O)cc(O)c12

Each compound was assayed against Calcium/calmodulin-dependent protein kinase type II subunit alpha (Homo sapiens) (UniProt Q9UQM7).

ΔTm | SMILES
0.7 °C | Nc1ncnc2c1c(I)cn2[C@@H]1O[C@H](CO)[C@@H](O)[C@H]1O
1.4 °C | O=C(O)Cc1ccc(O)c([N+](=O)[O-])c1
0.3 °C | O=c1sn(Cc2ccccc2)c(=S)n1Cc1ccccc1
3.9 °C | O=Nc1c(-c2c(O)[nH]c3ccccc23)[nH]c2ccccc12
0.8 °C | O=c1c(-c2ccc(O)cc2)coc2cc(O)cc(O)c12

These compounds were tested against T1, Calcium/calmodulin-dependent protein kinase type IV (Homo sapiens) (UniProt Q16566).
T1 sequence (whole entry): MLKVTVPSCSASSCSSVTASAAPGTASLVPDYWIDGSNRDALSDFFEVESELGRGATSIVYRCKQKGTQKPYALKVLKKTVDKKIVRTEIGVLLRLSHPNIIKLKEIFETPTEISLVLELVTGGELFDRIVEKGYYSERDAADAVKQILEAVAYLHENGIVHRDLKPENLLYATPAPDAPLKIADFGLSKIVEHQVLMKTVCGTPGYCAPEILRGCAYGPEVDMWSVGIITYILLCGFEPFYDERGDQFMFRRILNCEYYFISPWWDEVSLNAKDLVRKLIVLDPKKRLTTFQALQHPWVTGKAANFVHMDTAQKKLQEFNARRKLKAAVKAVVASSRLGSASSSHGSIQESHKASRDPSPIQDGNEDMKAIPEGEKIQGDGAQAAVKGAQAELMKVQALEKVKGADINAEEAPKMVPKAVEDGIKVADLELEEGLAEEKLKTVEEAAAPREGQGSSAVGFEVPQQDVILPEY

ΔTm | SMILES
2.5 °C | Nc1ncnc2c1c(I)cn2[C@@H]1O[C@H](CO)[C@@H](O)[C@H]1O
3.3 °C | O=C(O)Cc1ccc(O)c([N+](=O)[O-])c1
0.9 °C | O=c1sn(Cc2ccccc2)c(=S)n1Cc1ccccc1
4.5 °C | O=Nc1c(-c2c(O)[nH]c3ccccc23)[nH]c2ccccc12
-0.8 °C | O=c1c(-c2ccc(O)cc2)coc2cc(O)cc(O)c12

What follows are compounds tested against Calcium/calmodulin-dependent protein kinase kinase 2 (Homo sapiens, UniProt Q96RR4).
Calcium/calmodulin-dependent protein kinase kinase 2, sequence (Q96RR4 2-588 limits assumed): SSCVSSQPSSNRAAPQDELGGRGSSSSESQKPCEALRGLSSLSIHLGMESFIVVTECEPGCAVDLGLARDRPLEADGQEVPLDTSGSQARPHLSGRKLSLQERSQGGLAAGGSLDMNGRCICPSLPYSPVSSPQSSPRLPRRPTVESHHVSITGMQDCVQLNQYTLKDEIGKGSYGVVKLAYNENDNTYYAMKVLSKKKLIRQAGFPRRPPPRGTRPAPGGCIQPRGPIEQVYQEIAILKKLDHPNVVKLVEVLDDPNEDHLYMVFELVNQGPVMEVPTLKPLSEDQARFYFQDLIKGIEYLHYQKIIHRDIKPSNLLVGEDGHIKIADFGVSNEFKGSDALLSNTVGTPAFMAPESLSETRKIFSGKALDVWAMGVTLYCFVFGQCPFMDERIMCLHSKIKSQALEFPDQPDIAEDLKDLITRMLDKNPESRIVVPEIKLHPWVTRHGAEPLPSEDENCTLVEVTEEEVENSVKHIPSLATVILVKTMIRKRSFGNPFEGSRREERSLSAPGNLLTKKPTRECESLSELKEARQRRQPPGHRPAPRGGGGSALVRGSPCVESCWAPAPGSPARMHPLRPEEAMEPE

ΔTm | SMILES
2 °C | Nc1ncnc2c1c(I)cn2[C@@H]1O[C@H](CO)[C@@H](O)[C@H]1O
-0.1 °C | O=C(O)Cc1ccc(O)c([N+](=O)[O-])c1
-1.2 °C | O=c1sn(Cc2ccccc2)c(=S)n1Cc1ccccc1
4.3 °C | O=Nc1c(-c2c(O)[nH]c3ccccc23)[nH]c2ccccc12
1.3 °C | O=c1c(-c2ccc(O)cc2)coc2cc(O)cc(O)c12

What follows are compounds tested against Serine/threonine-protein kinase Chk2 (Homo sapiens, UniProt O96017).
Serine/threonine-protein kinase Chk2, sequence (O96017 whole entry): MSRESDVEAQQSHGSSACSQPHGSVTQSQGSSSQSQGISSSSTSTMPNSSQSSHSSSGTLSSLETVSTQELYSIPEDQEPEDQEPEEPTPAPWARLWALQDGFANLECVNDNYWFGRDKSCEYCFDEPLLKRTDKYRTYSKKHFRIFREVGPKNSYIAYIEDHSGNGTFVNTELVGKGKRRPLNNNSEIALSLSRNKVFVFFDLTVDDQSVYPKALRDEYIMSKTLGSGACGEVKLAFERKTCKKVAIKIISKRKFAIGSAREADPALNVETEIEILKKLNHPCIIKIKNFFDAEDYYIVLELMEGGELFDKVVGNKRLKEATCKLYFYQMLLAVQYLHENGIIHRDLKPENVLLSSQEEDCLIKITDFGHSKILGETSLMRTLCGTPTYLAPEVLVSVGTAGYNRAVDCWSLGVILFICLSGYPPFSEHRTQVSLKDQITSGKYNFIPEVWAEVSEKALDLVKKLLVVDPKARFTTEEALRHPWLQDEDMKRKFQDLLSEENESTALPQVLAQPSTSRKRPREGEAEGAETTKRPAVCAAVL

ΔTm | SMILES
0.9 °C | Nc1ncnc2c1c(I)cn2[C@@H]1O[C@H](CO)[C@@H](O)[C@H]1O
-0.8 °C | O=C(O)Cc1ccc(O)c([N+](=O)[O-])c1
0.3 °C | O=c1sn(Cc2ccccc2)c(=S)n1Cc1ccccc1
3.1 °C | O=Nc1c(-c2c(O)[nH]c3ccccc23)[nH]c2ccccc12
1.6 °C | O=c1c(-c2ccc(O)cc2)coc2cc(O)cc(O)c12

These compounds were tested against Dual specificity protein kinase CLK1 (Homo sapiens) (UniProt P49759).

ΔTm | SMILES
9.5 °C | Nc1ncnc2c1c(I)cn2[C@@H]1O[C@H](CO)[C@@H](O)[C@H]1O
-0.6 °C | O=C(O)Cc1ccc(O)c([N+](=O)[O-])c1
0.2 °C | O=c1sn(Cc2ccccc2)c(=S)n1Cc1ccccc1
4 °C | O=Nc1c(-c2c(O)[nH]c3ccccc23)[nH]c2ccccc12
1.1 °C | O=c1c(-c2ccc(O)cc2)coc2cc(O)cc(O)c12

Each compound was assayed against Casein kinase I isoform gamma-2 (Homo sapiens) (UniProt P78368).

ΔTm | SMILES
3.7 °C | Nc1ncnc2c1c(I)cn2[C@@H]1O[C@H](CO)[C@@H](O)[C@H]1O
1 °C | O=C(O)Cc1ccc(O)c([N+](=O)[O-])c1
0.2 °C | O=c1sn(Cc2ccccc2)c(=S)n1Cc1ccccc1
1.3 °C | O=Nc1c(-c2c(O)[nH]c3ccccc23)[nH]c2ccccc12
0.3 °C | O=c1c(-c2ccc(O)cc2)coc2cc(O)cc(O)c12

The compounds below were run against Casein kinase I isoform gamma-3 (Homo sapiens) (UniProt Q9Y6M4).

ΔTm | SMILES
2.7 °C | Nc1ncnc2c1c(I)cn2[C@@H]1O[C@H](CO)[C@@H](O)[C@H]1O
0.5 °C | O=C(O)Cc1ccc(O)c([N+](=O)[O-])c1
0.4 °C | O=c1sn(Cc2ccccc2)c(=S)n1Cc1ccccc1
2.7 °C | O=Nc1c(-c2c(O)[nH]c3ccccc23)[nH]c2ccccc12
1.6 °C | O=c1c(-c2ccc(O)cc2)coc2cc(O)cc(O)c12

Each compound was assayed against Tyrosine-protein kinase JAK1 (Homo sapiens) (UniProt P23458).

ΔTm | SMILES
0.2 °C | Nc1ncnc2c1c(I)cn2[C@@H]1O[C@H](CO)[C@@H](O)[C@H]1O
-0.3 °C | O=C(O)Cc1ccc(O)c([N+](=O)[O-])c1
2.3 °C | O=c1sn(Cc2ccccc2)c(=S)n1Cc1ccccc1
9.4 °C | O=Nc1c(-c2c(O)[nH]c3ccccc23)[nH]c2ccccc12
-0.2 °C | O=c1c(-c2ccc(O)cc2)coc2cc(O)cc(O)c12

What follows are compounds tested against T2, Dual specificity mitogen-activated protein kinase kinase 6 (Homo sapiens) (UniProt P52564).
T2 sequence (whole entry): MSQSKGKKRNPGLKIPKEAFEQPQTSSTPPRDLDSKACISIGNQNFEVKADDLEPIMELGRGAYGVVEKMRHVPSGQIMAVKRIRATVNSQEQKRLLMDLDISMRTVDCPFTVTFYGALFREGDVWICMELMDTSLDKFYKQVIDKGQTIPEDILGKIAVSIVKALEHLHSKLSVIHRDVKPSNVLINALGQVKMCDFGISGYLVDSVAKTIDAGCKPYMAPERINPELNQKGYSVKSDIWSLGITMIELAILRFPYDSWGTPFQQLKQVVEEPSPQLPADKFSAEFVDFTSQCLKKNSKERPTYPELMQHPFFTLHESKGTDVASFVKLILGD

ΔTm | SMILES
2.7 °C | Nc1ncnc2c1c(I)cn2[C@@H]1O[C@H](CO)[C@@H](O)[C@H]1O
0 °C | O=C(O)Cc1ccc(O)c([N+](=O)[O-])c1
0.1 °C | O=c1sn(Cc2ccccc2)c(=S)n1Cc1ccccc1
3.6 °C | O=Nc1c(-c2c(O)[nH]c3ccccc23)[nH]c2ccccc12
0.9 °C | O=c1c(-c2ccc(O)cc2)coc2cc(O)cc(O)c12

Each compound was assayed against Mitogen-activated protein kinase 3 (Homo sapiens, UniProt P27361).
Mitogen-activated protein kinase 3, sequence (P27361 whole entry): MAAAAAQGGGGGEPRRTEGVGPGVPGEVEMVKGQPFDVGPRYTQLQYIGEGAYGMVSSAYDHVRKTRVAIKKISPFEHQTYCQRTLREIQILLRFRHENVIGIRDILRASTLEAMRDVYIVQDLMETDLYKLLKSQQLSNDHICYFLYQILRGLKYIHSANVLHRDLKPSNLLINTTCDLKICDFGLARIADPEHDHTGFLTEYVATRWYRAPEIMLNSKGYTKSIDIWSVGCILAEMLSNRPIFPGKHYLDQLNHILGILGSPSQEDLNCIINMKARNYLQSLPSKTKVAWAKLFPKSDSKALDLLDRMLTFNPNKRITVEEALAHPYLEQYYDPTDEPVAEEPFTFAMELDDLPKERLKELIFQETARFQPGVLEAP

ΔTm | SMILES
1.5 °C | Nc1ncnc2c1c(I)cn2[C@@H]1O[C@H](CO)[C@@H](O)[C@H]1O
-0.2 °C | O=C(O)Cc1ccc(O)c([N+](=O)[O-])c1
-0.3 °C | O=c1sn(Cc2ccccc2)c(=S)n1Cc1ccccc1
0.9 °C | O=Nc1c(-c2c(O)[nH]c3ccccc23)[nH]c2ccccc12
0.6 °C | O=c1c(-c2ccc(O)cc2)coc2cc(O)cc(O)c12

What follows are compounds tested against Serine/threonine-protein kinase Nek6 (Homo sapiens) (UniProt Q9HC98).
Serine/threonine-protein kinase Nek6 (Homo sapiens), sequence (Q9HC98 whole entry): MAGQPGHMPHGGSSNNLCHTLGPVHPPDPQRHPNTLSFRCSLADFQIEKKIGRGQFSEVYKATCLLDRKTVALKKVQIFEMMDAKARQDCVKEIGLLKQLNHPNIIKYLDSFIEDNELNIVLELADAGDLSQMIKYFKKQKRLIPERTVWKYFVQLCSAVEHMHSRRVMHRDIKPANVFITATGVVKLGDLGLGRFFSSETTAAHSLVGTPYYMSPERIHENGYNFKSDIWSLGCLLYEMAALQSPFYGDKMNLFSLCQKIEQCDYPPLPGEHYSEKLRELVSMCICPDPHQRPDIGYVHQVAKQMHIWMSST

ΔTm | SMILES
-0.2 °C | Nc1ncnc2c1c(I)cn2[C@@H]1O[C@H](CO)[C@@H](O)[C@H]1O
0.5 °C | O=C(O)Cc1ccc(O)c([N+](=O)[O-])c1
0.1 °C | O=c1sn(Cc2ccccc2)c(=S)n1Cc1ccccc1
0.1 °C | O=Nc1c(-c2c(O)[nH]c3ccccc23)[nH]c2ccccc12
1 °C | O=c1c(-c2ccc(O)cc2)coc2cc(O)cc(O)c12

These compounds were tested against T3, 3-phosphoinositide-dependent protein kinase 1 (Homo sapiens) (UniProt O15530).
T3 sequence (whole entry): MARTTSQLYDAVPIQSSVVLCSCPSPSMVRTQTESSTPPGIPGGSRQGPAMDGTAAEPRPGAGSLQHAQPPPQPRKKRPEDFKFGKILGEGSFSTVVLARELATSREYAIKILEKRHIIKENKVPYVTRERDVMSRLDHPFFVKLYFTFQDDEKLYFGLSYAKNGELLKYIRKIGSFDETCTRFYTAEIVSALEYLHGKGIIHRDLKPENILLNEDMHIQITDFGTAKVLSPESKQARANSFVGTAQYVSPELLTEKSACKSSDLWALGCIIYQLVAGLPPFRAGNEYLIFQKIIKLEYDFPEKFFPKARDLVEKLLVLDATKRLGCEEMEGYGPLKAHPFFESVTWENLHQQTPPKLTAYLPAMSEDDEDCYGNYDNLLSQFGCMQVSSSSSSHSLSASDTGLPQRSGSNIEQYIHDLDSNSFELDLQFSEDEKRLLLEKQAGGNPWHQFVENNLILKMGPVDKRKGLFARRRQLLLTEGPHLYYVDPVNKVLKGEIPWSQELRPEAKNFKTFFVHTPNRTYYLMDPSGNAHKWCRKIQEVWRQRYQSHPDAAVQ

ΔTm | SMILES
0 °C | Nc1ncnc2c1c(I)cn2[C@@H]1O[C@H](CO)[C@@H](O)[C@H]1O
-0.6 °C | O=C(O)Cc1ccc(O)c([N+](=O)[O-])c1
0 °C | O=c1sn(Cc2ccccc2)c(=S)n1Cc1ccccc1
1.5 °C | O=Nc1c(-c2c(O)[nH]c3ccccc23)[nH]c2ccccc12
2.5 °C | O=c1c(-c2ccc(O)cc2)coc2cc(O)cc(O)c12

The compounds below were run against cAMP-dependent protein kinase catalytic subunit alpha (Homo sapiens) (UniProt P17612).

ΔTm | SMILES
1.3 °C | Nc1ncnc2c1c(I)cn2[C@@H]1O[C@H](CO)[C@@H](O)[C@H]1O
-0.9 °C | O=C(O)Cc1ccc(O)c([N+](=O)[O-])c1
0.4 °C | O=c1sn(Cc2ccccc2)c(=S)n1Cc1ccccc1
3.8 °C | O=Nc1c(-c2c(O)[nH]c3ccccc23)[nH]c2ccccc12
2.1 °C | O=c1c(-c2ccc(O)cc2)coc2cc(O)cc(O)c12

These compounds were tested against Serine/threonine-protein kinase RIO2 (Homo sapiens) (UniProt Q9BVS4).
Serine/threonine-protein kinase RIO2 (Homo sapiens), sequence (Q9BVS4 whole entry, looked up): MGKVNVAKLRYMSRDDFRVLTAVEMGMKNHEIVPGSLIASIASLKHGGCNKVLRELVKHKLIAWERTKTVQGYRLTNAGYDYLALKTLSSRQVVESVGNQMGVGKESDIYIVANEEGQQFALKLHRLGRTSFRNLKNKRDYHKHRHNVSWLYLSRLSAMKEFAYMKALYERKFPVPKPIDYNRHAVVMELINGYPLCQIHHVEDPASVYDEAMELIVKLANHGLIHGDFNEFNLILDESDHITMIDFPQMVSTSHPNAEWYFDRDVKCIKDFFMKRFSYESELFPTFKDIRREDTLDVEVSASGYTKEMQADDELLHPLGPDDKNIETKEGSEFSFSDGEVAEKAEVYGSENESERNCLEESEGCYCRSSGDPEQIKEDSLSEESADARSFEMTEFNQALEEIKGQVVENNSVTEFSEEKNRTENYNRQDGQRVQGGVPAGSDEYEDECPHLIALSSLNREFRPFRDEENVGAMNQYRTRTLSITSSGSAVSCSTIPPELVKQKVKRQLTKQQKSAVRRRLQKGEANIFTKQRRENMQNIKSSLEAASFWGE

ΔTm | SMILES
1.7 °C | Nc1ncnc2c1c(I)cn2[C@@H]1O[C@H](CO)[C@@H](O)[C@H]1O
-0.1 °C | O=C(O)Cc1ccc(O)c([N+](=O)[O-])c1
0.1 °C | O=c1sn(Cc2ccccc2)c(=S)n1Cc1ccccc1
2.6 °C | O=Nc1c(-c2c(O)[nH]c3ccccc23)[nH]c2ccccc12
0.6 °C | O=c1c(-c2ccc(O)cc2)coc2cc(O)cc(O)c12

Each compound was assayed against Ribosomal protein S6 kinase alpha-3 (Homo sapiens) (UniProt P51812).

ΔTm | SMILES
1.7 °C | Nc1ncnc2c1c(I)cn2[C@@H]1O[C@H](CO)[C@@H](O)[C@H]1O
-0.1 °C | O=C(O)Cc1ccc(O)c([N+](=O)[O-])c1
0 °C | O=c1sn(Cc2ccccc2)c(=S)n1Cc1ccccc1
5.5 °C | O=Nc1c(-c2c(O)[nH]c3ccccc23)[nH]c2ccccc12
0.2 °C | O=c1c(-c2ccc(O)cc2)coc2cc(O)cc(O)c12

These compounds were tested against STE20-like serine/threonine-protein kinase (Homo sapiens) (UniProt Q9H2G2).
STE20-like serine/threonine-protein kinase (Homo sapiens), sequence (Q9H2G2 whole entry, looked up): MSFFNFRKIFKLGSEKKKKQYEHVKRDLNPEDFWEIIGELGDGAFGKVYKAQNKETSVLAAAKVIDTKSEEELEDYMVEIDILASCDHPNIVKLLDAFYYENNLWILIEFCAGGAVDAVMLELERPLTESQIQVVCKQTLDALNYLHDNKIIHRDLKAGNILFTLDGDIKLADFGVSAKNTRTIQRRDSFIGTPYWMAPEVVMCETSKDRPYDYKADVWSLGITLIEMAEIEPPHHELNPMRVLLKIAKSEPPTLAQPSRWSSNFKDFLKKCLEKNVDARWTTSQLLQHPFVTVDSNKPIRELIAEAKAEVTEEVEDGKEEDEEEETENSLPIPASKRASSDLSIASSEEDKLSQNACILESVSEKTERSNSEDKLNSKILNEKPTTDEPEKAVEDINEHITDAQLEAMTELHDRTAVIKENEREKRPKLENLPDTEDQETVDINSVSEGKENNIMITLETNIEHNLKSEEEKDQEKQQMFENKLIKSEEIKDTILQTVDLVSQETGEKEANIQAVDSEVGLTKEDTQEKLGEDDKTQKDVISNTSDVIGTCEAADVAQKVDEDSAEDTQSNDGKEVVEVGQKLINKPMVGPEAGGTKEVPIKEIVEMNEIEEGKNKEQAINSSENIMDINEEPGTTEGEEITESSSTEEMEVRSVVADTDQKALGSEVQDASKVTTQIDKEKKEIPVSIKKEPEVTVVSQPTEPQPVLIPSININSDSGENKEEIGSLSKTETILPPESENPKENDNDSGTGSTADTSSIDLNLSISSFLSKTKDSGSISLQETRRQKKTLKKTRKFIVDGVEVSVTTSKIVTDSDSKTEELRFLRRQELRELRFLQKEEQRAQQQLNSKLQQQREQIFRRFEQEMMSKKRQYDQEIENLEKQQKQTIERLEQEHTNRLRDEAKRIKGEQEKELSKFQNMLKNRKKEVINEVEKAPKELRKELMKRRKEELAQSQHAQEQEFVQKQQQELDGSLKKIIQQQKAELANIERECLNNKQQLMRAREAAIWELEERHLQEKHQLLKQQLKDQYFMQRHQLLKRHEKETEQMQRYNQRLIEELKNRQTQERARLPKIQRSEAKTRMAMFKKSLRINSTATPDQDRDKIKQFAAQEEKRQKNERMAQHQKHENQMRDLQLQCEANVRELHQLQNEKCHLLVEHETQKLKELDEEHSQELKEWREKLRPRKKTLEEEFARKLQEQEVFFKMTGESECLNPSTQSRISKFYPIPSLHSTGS

ΔTm | SMILES
4.2 °C | Nc1ncnc2c1c(I)cn2[C@@H]1O[C@H](CO)[C@@H](O)[C@H]1O
0 °C | O=C(O)Cc1ccc(O)c([N+](=O)[O-])c1
0.4 °C | O=c1sn(Cc2ccccc2)c(=S)n1Cc1ccccc1
3.9 °C | O=Nc1c(-c2c(O)[nH]c3ccccc23)[nH]c2ccccc12
2.4 °C | O=c1c(-c2ccc(O)cc2)coc2cc(O)cc(O)c12

Each compound was assayed against TRAF2 and NCK-interacting protein kinase (Homo sapiens) (UniProt Q9UKE5).
TRAF2 and NCK-interacting protein kinase (Homo sapiens), sequence (Q9UKE5 whole entry, looked up): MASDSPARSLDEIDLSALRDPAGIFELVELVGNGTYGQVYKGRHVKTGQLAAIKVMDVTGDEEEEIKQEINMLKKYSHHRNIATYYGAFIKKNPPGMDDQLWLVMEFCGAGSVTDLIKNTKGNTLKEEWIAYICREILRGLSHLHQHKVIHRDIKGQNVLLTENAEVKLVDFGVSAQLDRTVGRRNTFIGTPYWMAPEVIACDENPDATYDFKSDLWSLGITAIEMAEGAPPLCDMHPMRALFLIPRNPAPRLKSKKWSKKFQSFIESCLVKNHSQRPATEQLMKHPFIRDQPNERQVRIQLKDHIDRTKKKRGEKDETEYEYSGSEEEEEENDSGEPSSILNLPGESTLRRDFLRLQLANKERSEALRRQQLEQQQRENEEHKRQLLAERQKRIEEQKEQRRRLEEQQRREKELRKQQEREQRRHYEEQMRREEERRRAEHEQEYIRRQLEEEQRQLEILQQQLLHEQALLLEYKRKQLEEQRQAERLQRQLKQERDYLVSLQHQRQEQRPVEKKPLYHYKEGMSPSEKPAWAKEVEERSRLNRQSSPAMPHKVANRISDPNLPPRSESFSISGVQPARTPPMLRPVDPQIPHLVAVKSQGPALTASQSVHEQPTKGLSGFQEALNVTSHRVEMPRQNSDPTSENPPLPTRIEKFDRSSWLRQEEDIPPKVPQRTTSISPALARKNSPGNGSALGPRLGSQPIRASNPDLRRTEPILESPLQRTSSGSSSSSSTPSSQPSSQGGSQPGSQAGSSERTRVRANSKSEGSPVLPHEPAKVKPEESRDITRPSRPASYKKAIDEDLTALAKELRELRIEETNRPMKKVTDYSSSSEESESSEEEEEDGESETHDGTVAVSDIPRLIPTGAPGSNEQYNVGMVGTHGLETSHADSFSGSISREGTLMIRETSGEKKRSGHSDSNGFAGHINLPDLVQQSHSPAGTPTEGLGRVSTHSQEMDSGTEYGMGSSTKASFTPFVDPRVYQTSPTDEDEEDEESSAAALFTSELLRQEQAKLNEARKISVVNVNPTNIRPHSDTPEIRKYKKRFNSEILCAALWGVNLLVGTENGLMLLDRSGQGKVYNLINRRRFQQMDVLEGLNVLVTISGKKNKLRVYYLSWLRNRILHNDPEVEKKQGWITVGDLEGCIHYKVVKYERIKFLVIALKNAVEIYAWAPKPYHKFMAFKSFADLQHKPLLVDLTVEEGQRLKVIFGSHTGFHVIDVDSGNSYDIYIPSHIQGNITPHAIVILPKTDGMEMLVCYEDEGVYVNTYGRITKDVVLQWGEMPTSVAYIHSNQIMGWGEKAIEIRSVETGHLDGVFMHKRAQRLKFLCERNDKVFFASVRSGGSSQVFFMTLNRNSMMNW

ΔTm | SMILES
1.6 °C | Nc1ncnc2c1c(I)cn2[C@@H]1O[C@H](CO)[C@@H](O)[C@H]1O
-0.2 °C | O=C(O)Cc1ccc(O)c([N+](=O)[O-])c1
0 °C | O=c1sn(Cc2ccccc2)c(=S)n1Cc1ccccc1
5.9 °C | O=Nc1c(-c2c(O)[nH]c3ccccc23)[nH]c2ccccc12
0.4 °C | O=c1c(-c2ccc(O)cc2)coc2cc(O)cc(O)c12

These compounds were tested against T4, Serine/threonine-protein kinase VRK3 (Homo sapiens) (UniProt Q8IV63).
T4 sequence (whole entry): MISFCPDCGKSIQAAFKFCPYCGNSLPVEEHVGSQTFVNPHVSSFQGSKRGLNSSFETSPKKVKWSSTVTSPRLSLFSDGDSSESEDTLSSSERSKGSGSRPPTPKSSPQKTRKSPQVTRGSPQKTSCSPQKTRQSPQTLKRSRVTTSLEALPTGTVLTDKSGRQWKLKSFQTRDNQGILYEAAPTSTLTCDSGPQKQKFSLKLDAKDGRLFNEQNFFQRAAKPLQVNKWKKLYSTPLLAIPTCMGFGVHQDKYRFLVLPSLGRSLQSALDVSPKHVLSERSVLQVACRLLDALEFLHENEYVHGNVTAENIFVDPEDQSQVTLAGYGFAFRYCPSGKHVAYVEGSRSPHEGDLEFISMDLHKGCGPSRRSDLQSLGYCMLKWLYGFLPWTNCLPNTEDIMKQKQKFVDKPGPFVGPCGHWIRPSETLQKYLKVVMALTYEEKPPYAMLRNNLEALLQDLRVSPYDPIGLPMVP

ΔTm | SMILES
0.1 °C | Nc1ncnc2c1c(I)cn2[C@@H]1O[C@H](CO)[C@@H](O)[C@H]1O
-0.3 °C | O=C(O)Cc1ccc(O)c([N+](=O)[O-])c1
0.9 °C | O=c1sn(Cc2ccccc2)c(=S)n1Cc1ccccc1
-0.8 °C | O=Nc1c(-c2c(O)[nH]c3ccccc23)[nH]c2ccccc12
1.2 °C | O=c1c(-c2ccc(O)cc2)coc2cc(O)cc(O)c12
